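Dose response: 5 concentrations. Exposure: 48 h. Format: 96-well plates. Endpoint: linear interpolation; highest concentration if not reached. Here, GI50 denotes the concentration required for 50% inhibition of growth.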 Calls of active or inactive are those of the source. No stated cut-off is given here; in the data, active = GI50 up to about 1.1 µM and inactive = higher.
Legend:
Experiment in all cases: DTP human tumour cell line panel, 48 h
[1] = test system: HCC 2998
[2] = test system: COLO 205
[3] = test system: UACC-257
[4] = test system: NCI-H460
[5] = test system: LOX IMVI
[6] = test system: Hs-578T
[7] = test system: SK-MEL-28
[8] = test system: MCF7
[9] = test system: MDA-MB-231
[10] = test system: HT-29
[11] = test system: UO-31
[12] = test system: CAKI-1
[13] = test system: KM12
[14] = test system: SK-OV-3
[15] = test system: PC-3
[16] = test system: NCI/ADR-RES
[17] = test system: 786-0
[18] = test system: OVCAR-3
[19] = test system: TK-10
[20] = test system: SF-295
[21] = test system: Malme-3M
[22] = test system: A498
[23] = test system: SF-539
[24] = test system: SW-620
[25] = test system: MDA-MB-435
[26] = test system: SK-MEL-5
[27] = test system: SF-268
[28] = test system: HOP-62
[29] = test system: M14
[30] = test system: K562
[31] = test system: NCI-H226
[32] = test system: A549
[33] = test system: ACHN
[34] = test system: NCI-H23
[35] = test system: MOLT-4
[36] = test system: SNB-75
[37] = test system: RPMI-8226
[38] = test system: DU-145
[39] = test system: OVCAR-8
[40] = test system: IGROV-1
[41] = test system: T47D
[42] = test system: RXF 393
[43] = test system: SN12C
[44] = test system: OVCAR-5
[45] = test system: HOP-92
[46] = test system: MDA-N
[47] = test system: EKVX
[48] = test system: HL-60
[49] = test system: HCT-116
[50] = test system: SR
[51] = test system: NCI-H522
[52] = test system: CCRF-CEM
[53] = test system: SNB-19
[54] = test system: OVCAR-4

Measured: GI50

CC(C)=CCN(N=O)c1ncnc2[nH]cnc12
inactive: [1] > 100 µM | [2] > 100 µM | [3] > 100 µM | [4] > 100 µM | [5] 92.5 µM | [6] > 100 µM | [7] > 100 µM | [8] > 100 µM | [9] > 100 µM | [10] > 100 µM | [11] > 100 µM | [12] > 100 µM | [13] > 100 µM | [14] > 100 µM | [15] 94.6 µM | [16] > 100 µM | [17] > 100 µM | [18] > 100 µM | [19] > 100 µM | [20] > 100 µM | [21] > 100 µM | [22] 95.1 µM | [23] > 100 µM | [24] > 100 µM | [25] > 100 µM | [26] > 100 µM | [27] > 100 µM | [28] > 100 µM | [29] > 100 µM | [30] 73.6 µM | [31] > 100 µM | [32] > 100 µM | [33] > 100 µM | [34] > 100 µM | [35] > 100 µM | [36] 54.8 µM | [37] 88.1 µM | [38] > 100 µM | [39] > 100 µM | [40] > 100 µM | [41] 94.6 µM | [42] > 100 µM | [43] > 100 µM | [44] > 100 µM | [45] > 100 µM | [46] > 100 µM | [47] > 100 µM | [48] > 100 µM | [49] > 100 µM | [50] 75.3 µM | [51] > 100 µM | [52] > 100 µM | [53] > 100 µM | [54] 89.5 µM

— ChEMBL document CHEMBL1201862, “PubChem BioAssay data set” (2004)
